Laboratory results reported in ChEMBL document CHEMBL4190345, “Synthesis and biological evaluation of new substituted thioglycolurils, their analogues and derivatives” (Eur J Med Chem, 2017).
pIC50: −log10 of the molar value.

Assays:
RD = assay: Cytotoxicity in human RD cells assessed as inhibition of cell growth incubated for 72 hrs by MTT assay; assay type: functional, cell-based
A549 = assay: Cytotoxicity in human A549 cells assessed as inhibition of cell growth incubated for 72 hrs by MTT assay; assay type: functional, cell-based; conditions: A549, 72 h
[1] = Cytotoxicity in human […] cells assessed as inhibition of cell growth incubated for 72 hrs by MTT assay; assay type: functional, cell-based
MCF7 = assay: Cytotoxicity in human MCF7 cells assessed as inhibition of cell growth incubated for 72 hrs by MTT assay; assay type: functional, cell-based; conditions: MCF7, 72 h
Venturia inaequalis = assay: Fungicidal activity against Venturia inaequalis grown under potato-saccharose agar assessed as inhibition of mycelial radial growth at 30 mg/l incubated for 72 hrs; assay type: functional; conditions: read-out: GI
Rhizoctonia solani = assay: Fungicidal activity against Rhizoctonia solani grown under potato-saccharose agar assessed as inhibition of mycelial radial growth at 30 mg/l incubated for 72 hrs; assay type: functional; conditions: read-out: GI
Fusarium oxysporum = assay: Fungicidal activity against Fusarium oxysporum grown under potato-saccharose agar assessed as inhibition of mycelial radial growth at 30 mg/l incubated for 72 hrs; assay type: functional; conditions: read-out: GI
Fusarium verticillioides = assay: Fungicidal activity against Fusarium moniliforme grown under potato-saccharose agar assessed as inhibition of mycelial radial growth at 30 mg/l incubated for 72 hrs; assay type: functional; conditions: read-out: GI
Bipolaris sorokiniana = assay: Fungicidal activity against Bipolaris sorokiniana grown under potato-saccharose agar assessed as inhibition of mycelial radial growth at 30 mg/l incubated for 72 hrs; assay type: functional; conditions: read-out: GI
Sclerotinia sclerotiorum = assay: Fungicidal activity against Sclerotinia sclerotiorum grown under potato-saccharose agar assessed as inhibition of mycelial radial growth at 30 mg/l incubated for 72 hrs; assay type: functional; conditions: read-out: GI
HEK293 = assay: Cytotoxicity in human HEK293 cells assessed as inhibition of cell growth incubated for 72 hrs by MTT assay; assay type: cell-based; conditions: for pIC50: Homo sapiens, HEK293, 72 h, read-out: IC50; for IC50: hek293
Jurkat [2] = assay: Induction of apoptosis in human Jurkat cells assessed as viable cells level at 5 uM incubated for 24 hrs by annexin V and Alexa Fluor 488 dye staining based flow cytometry (reference value: 92.408%); assay type: functional
Jurkat [3] = assay: Induction of apoptosis in human Jurkat cells assessed as apoptotic cells level at 5 uM incubated for 24 hrs by annexin V and Alexa Fluor 488 dye staining based flow cytometry (reference value: 4.928%); assay type: functional
Jurkat [4] = assay: Induction of apoptosis in human Jurkat cells assessed as necrotic cells level at 5 uM incubated for 24 hrs by annexin V and Alexa Fluor 488 dye staining based flow cytometry (reference value: 2.616%); assay type: functional
Jurkat [5] = assay: Induction of apoptosis in human Jurkat cells assessed as damaged cells level at 5 uM incubated for 24 hrs by annexin V and Alexa Fluor 488 dye staining based flow cytometry (reference value: 0.048%); assay type: functional
Jurkat [6] = assay: Induction of apoptosis in human Jurkat cells assessed as damaged cells level at 5 uM incubated for 6 hrs by annexin V and Alexa Fluor 488 dye staining based flow cytometry (reference value: 0.07%); assay type: functional
Jurkat [7] = assay: Induction of apoptosis in human Jurkat cells assessed as necrotic cells level at 5 uM incubated for 24 hrs by annexin V and Alexa Fluor 488 dye staining based flow cytometry (reference value: 2.04%); assay type: functional
Jurkat [8] = assay: Induction of apoptosis in human Jurkat cells assessed as viable cells level at 5 uM incubated for 24 hrs by annexin V and Alexa Fluor 488 dye staining based flow cytometry (reference value: 95.27%); assay type: functional
Jurkat [9] = assay: Induction of apoptosis in human Jurkat cells assessed as apoptotic cells level at 5 uM incubated for 24 hrs by annexin V and Alexa Fluor 488 dye staining based flow cytometry (reference value: 2.62%); assay type: functional

Compound	pIC50 (RD)	pIC50 (A549)	pIC50 [1]	pIC50 (MCF7)	inhibition of growth at 30 µg/mL (Venturia inaequalis)	inhibition of growth at 30 µg/mL (Rhizoctonia solani)	inhibition of growth at 30 µg/mL (Fusarium oxysporum)	inhibition of growth at 30 µg/mL (Fusarium verticillioides)	inhibition of growth at 30 µg/mL (Bipolaris sorokiniana)	inhibition of growth at 30 µg/mL (Sclerotinia sclerotiorum)	pIC50 (HEK293)	IC50 (HEK293)	Activity (Jurkat [2])	Apoptotic cells (Jurkat [3])	Necrotic cells (Jurkat [4])	Activity (Jurkat [5])	Activity (Jurkat [6])	Activity (Jurkat [7])	Viable cells (Jurkat [8])	Apoptotic cells (Jurkat [9])
CCN1C(=O)N(CC)C2C1NC(=S)N2/N=C/C=C/c1ccc(OC)cc1 (stereo not given)	4.06	4.76	4.76	4.44	14%	26%	18%	23%	19%	0%	–	–	–	–	–	–	–	–	–	–
CSC1=NC2C(N(C)C(=O)N2C)N1/N=C/C=C/c1ccccc1[N+](=O)[O-] (stereo not given)	< 4.00	< 4.00	< 4.00	< 4.00	10%	49%	20%	19%	36%	13%	–	–	–	–	–	–	–	–	–	–
CCSC1=NC2C(N(CC)C(=O)N2CC)N1/N=C/C=C/c1ccccc1[N+](=O)[O-] (stereo not given)	5.61	< 4.00	5.29	4.51	10%	44%	12%	22%	39%	12%	3.66	–	–	–	–	–	–	–	–	–
CCN1C(=O)N(c2ccccc2)C2NC(=S)N(/N=C/C=C/c3ccccc3)C21 (stereo not given)	6.33	< 4.00	5.84	5.65	–	–	–	–	–	–	5.66	–	–	–	–	–	–	–	–	–
CCN1C(=O)N(CC)C2C1NC(=S)N2/N=C/C=C/c1ccccc1 (stereo not given)	5.65	5.19	5.36	4.44	12%	42%	36%	41%	19%	3%	4.38	–	–	–	–	–	–	–	–	–
COc1ccc(/C=C/C=N/N2C(=S)NC3C2N(C)C(=O)N3C)cc1 (stereo not given)	< 4.00	< 4.00	4.00	< 4.00	–	–	–	–	–	–	–	–	–	–	–	–	–	–	–	–
CC(/C=N/N1C(=S)NC2C1N(C)C(=O)N2C)=C\c1ccccc1 (stereo not given)	4.08	4.31	4.12	< 4.00	28%	82%	29%	20%	9%	11%	–	–	–	–	–	–	–	–	–	–
CCN1C(=O)N(CC)C2C1NC(=O)N2/N=C/C=C/c1ccccc1 (stereo not given)	5.69	4.35	4.74	4.08	–	–	–	–	–	–	–	Not Active	–	–	–	–	–	–	–	–
CCN1C(=O)N(CC)C2C1NC(=S)N2/N=C/C=C/c1ccccc1OC (stereo not given)	6.60	6.21	4.76	< 4.00	29%	52%	21%	37%	38%	10%	4.06	–	50.468%	36.66%	12.796%	0.076%	0.1%	2.82%	94.06%	3.02%
CCN1C(=O)N(CC)C2C1N=C(SC)N2/N=C/C=C/c1ccccc1OC (stereo not given)	5.10	5.32	5.96	4.46	20%	65%	51%	42%	47%	23%	3.84	–	–	–	–	–	–	–	–	–
COc1ccccc1/C=C/C=N/N1C(=S)NC2C1N(C)C(=O)N2c1ccccc1 (stereo not given)	7.70	< 4.00	7.92	6.59	–	–	–	–	–	–	6.64	–	56.076%	26.98%	16.808%	0.136%	0.14%	2.39%	94.37%	3.1%
CCN1C(=O)N(CC)C2C1NC(=O)N2/N=C/C=C/c1ccccc1[N+](=O)[O-] (stereo not given)	5.71	< 4.00	5.02	4.06	–	–	–	–	–	–	4.37	–	–	–	–	–	–	–	–	–
CN1C(=O)N(C)C2C1NC(=S)N2/N=C/C=C/c1ccccc1 (stereo not given)	4.34	4.34	4.37	< 4.00	–	–	–	–	–	–	–	–	–	–	–	–	–	–	–	–
CCN1C(=O)N(CC)C2C1N=C(SC)N2/N=C/C=C/c1ccccc1[N+](=O)[O-] (stereo not given)	4.38	< 4.00	4.18	4.18	–	–	–	–	–	–	–	–	–	–	–	–	–	–	–	–
CCN1C(=O)N(CC)C2C1NC(=S)N2/N=C/C(C)=C/c1ccccc1 (stereo not given)	4.70	< 4.00	4.58	4.45	25%	34%	23%	41%	7%	5%	–	–	–	–	–	–	–	–	–	–
CCN1C(=O)N(CC)C2C1NC(=S)N2/N=C/C=C/c1ccccc1[N+](=O)[O-] (stereo not given)	4.82	< 4.00	5.11	4.36	–	–	–	–	–	–	4.72	–	–	–	–	–	–	–	–	–
CCN1C(=O)N(c2ccccc2)C2NC(=S)N(/N=C/C=C/c3ccccc3OC)C21 (stereo not given)	4.34	< 4.00	5.67	4.10	0%	17%	1%	19%	0%	12%	4.24	–	–	–	–	–	–	–	–	–
CN1C(=O)N(C)C2C1NC(=S)N2/N=C/C=C/c1ccccc1[N+](=O)[O-] (stereo not given)	4.49	5.57	5.42	5.75	–	–	–	–	–	–	–	Not Active	56.128%	34.62%	9.164%	0.088%	0.06%	2.16%	94.6%	3.18%
CN1C(=O)N(c2ccccc2)C2NC(=S)N(/N=C/C=C/c3ccccc3)C21 (stereo not given)	5.77	< 4.00	4.92	< 4.00	–	–	–	–	–	–	3.78	–	–	–	–	–	–	–	–	–
CCN1C(=O)N(CC)C2C1N=C(SC)N2/N=C/C=C/c1ccccc1 (stereo not given)	4.62	4.67	5.26	4.33	13%	60%	38%	37%	49%	11%	3.82	–	–	–	–	–	–	–	–	–
CC[C@@]1(O)C(=O)OCc2c1cc1n(c2=O)Cc2cc3ccccc3nc2-1 [CAMPTOTHECIN]	5.35	5.05	4.91	4.87	–	–	–	–	–	–	4.26	–	37.372%	36.412%	26.084%	0.132%	0.12%	3.53%	63.71%	32.64%
COc1cccc2c1C(=O)c1c(O)c3c(c(O)c1C2=O)C[C@@](O)(C(C)=O)C[C@@H]3O[C@H]1C[C@H](N)[C@H](O)[C@H](C)O1 [DAUNORUBICIN]	5.61	6.29	6.68	5.84	–	–	–	–	–	–	4.95	–	–	–	–	–	–	–	–	–
COc1cccc2c1C(=O)c1c(O)c3c(c(O)c1C2=O)C[C@@](O)(C(=O)CO)C[C@@H]3O[C@H]1C[C@H](N)[C@H](O)[C@H](C)O1 [DOXORUBICIN]	6.28	6.28	6.72	6.25	–	–	–	–	–	–	5.68	–	–	–	–	–	–	–	–	–
